Test results reported in PubChem BioAssay (NCI).
“And” between values parts separate entries of the source, which are not always exact repeats. Equal values may be shown once.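 How tested: cells in 96-well plates exposed to compound for 48 hours at five concentrations. GI50 = concentration required for 50% inhibition of growth. Definition used: TGI = concentration required for complete inhibition of growth.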

Columns and labels:
Test in all cases: NCI tumour cell line growth inhibition, 48 h
[1] = system: BT-549 breast
[2] = system: HS 578T breast
[3] = system: LOX IMVI melanoma
[4] = system: MOLT-4 leukemia
[5] = system: NCI-H226 lung
[6] = system: SF-295 CNS
[7] = system: SK-MEL-2 melanoma
[8] = system: SN12C renal
[9] = system: SW-620 colon
[10] = system: U251 CNS
[11] = system: UACC-257 melanoma
[12] = system: HL-60(TB) leukemia

SMILES	TGI [1] [µM]	TGI [2] [µM]	TGI [3] [µM]	TGI [4]	TGI [5] [µM]	TGI [6]	TGI [7]	TGI [8]	TGI [9]	TGI [10]	TGI [11]	TGI [12]	GI50 [2] [µM]	GI50 [5] [µM]	GI50 [6] [µM]	GI50 [8] [µM]	GI50 [9] [µM]	GI50 [11]	GI50 [12]	GI50 [7]
CCOC(=O)CCC(NC(=O)c1ccc(N2CCN(c3c(C)nc(N)nc3N)CC2)cc1)C(=O)OCC (stereo not drawn)	> 100	> 100	> 100	> 100 µM	> 100	> 100 µM	> 100 µM	> 100 µM	> 100 µM	> 100 µM	> 55.9 µM									
COc1ccccc1N1CCN(Cn2c(=O)oc3cccnc32)CC1		> 100	> 100	> 100 µM		> 100 µM	> 100 µM		> 100 µM	> 100 µM	> 100 µM	> 100 µM								
C[C@H](O)C1CC(Cn2nnc3c(N)ncnc32)C1(C)C (stereo partly drawn)		> 100	> 100		> 100	> 100 µM	> 100 µM	> 100 µM	> 100 µM	> 100 µM	> 100 µM									
O=C(CSCC(=O)N/N=C\c1ccc(-c2ccccc2)cc1)N/N=C\c1ccc(-c2ccccc2)cc1	66.3	49.8	32.4	> 100 µM	84.5	40.9 µM	83.4 µM	53.6 µM	38.4 µM	31.5 µM	> 100 µM									
COc1ccc2c(c1)c1c(n2CCN2CCCCC2)-c2ccccc2CC1	41.5	28.5	40.4	40.7 µM	19.3	28.4 µM	29.3 µM	33.5 µM	37.8 µM	30.5 µM	32.1 µM									
CCN(CC)C(=S)SS(=O)(=O)c1ccc([N+](=O)[O-])cc1	> 100	> 100	33.8		> 100	> 100 µM	> 100 µM	> 100 µM	37.1 µM	36.7 µM	53.5 µM		> 100	83.8	58.9	26.9	17.9	24 µM		
CCC1C(c2cc(OC)c(OC)c(OC)c2)c2cc3c(cc2OC1N1CCOCC1)OCO3 (stereo not drawn)	22	28.9	10.5		27.6	8.52 µM	> 100 µM	28.6 µM	10.3 µM		55.5 µM									
C(=C\C(SCc1ccccc1)SCc1ccccc1)/c1ccccc1		> 10	> 10	> 10 µM	> 10	> 10 µM	> 10 µM	> 10 µM	> 10 µM	> 10 µM	> 10 µM	> 10 µM								
Nc1nc(Cl)cc(Nc2cc(Cl)cc(Cl)c2)n1	45.4	41.1	32.3	47.6 µM	40.8	38.4 µM	38.1 µM	40.7 µM	41.1 µM	38.4 µM	32.8 µM									
CCOC(=O)C(NC(=O)Nc1ccc(Cl)c(Cl)c1)C(F)(F)F (stereo not drawn)	> 100	> 100	> 100	> 100 µM			> 100 µM	> 100 µM	> 100 µM	> 100 µM	> 100 µM	> 100 µM								
CC(C)=CCSC1CC2C(CC1(C)O)C2(C)C (stereo not drawn)			29.7	40.9 µM and 67.5 µM	27.5	55.9 µM and 35.2 µM	44.5 µM and 24.7 µM	32 µM and 29.6 µM	35.1 µM and 33.3 µM	28.5 µM and 27.1 µM	32.6 µM and 20.6 µM	> 100 µM and 19.7 µM						18.3 µM and 7.13 µM	34.1 µM and 3.82 µM	22.8 µM and 10.2 µM
Cc1cccc(NC(=S)N=Nc2c(O)[nH]c3ccccc23)c1		> 100	> 100	> 100 µM	> 100	> 100 µM	> 100 µM	> 100 µM	> 100 µM	> 100 µM	> 100 µM	> 100 µM								
CNC1=CC(=O)C2=C(C1=O)[C@H]1CC[C@]3(C)C(=O)CC[C@H]3[C@@H]1CC2	36		23.7	> 49.1 µM	25.5	29.1 µM	17.1 µM	> 52.7 µM	> 51.6 µM	> 60.2 µM	28.8 µM									
COc1ccc(CC2NC(=O)/C=C/CC(C(C)C3OC3c3ccccc3)OC(=O)C(CC(C)C)OC(=O)C(C)CNC2=O)cc1Cl (stereo not drawn)			> 0.1		0.000127		> 0.1 µM	> 0.1 µM	> 0.1 µM	> 0.1 µM	> 0.1 µM									
Brc1ccc2[nH]cc(-c3nc(-c4c[nH]c5ccccc45)cs3)c2c1	23.4	> 47.9	4.68		8.13	10.6 µM	8.43 µM	13.9 µM	13.3 µM	8.38 µM	15.4 µM	16.1 µM								
COc1cc2c(c(OC)c1OC)-c1ccc(SC)cc1[C@H](OC(=O)c1ccccc1)CC2	> 100		> 100	> 100 µM	0.634	> 100 µM	> 100 µM	> 78.2 µM	> 100 µM		> 100 µM	0.487 µM								
CC[C@H]1OC([C@H](O)C/C=C\C#C[Si](C)(C)C)C/C=C\C[C@H]1O[Si](C)(C)C(C)(C)C (stereo partly drawn)	> 100	> 100	36.3	> 100 µM	> 100	> 100 µM	> 100 µM	> 100 µM	> 100 µM	> 100 µM										
CC(C)CCn1c(=O)c2c(=O)[nH][nH]c2c2ccccc21	> 100	> 100	> 100		> 100	> 100 µM		> 100 µM	> 100 µM	> 100 µM	> 100 µM	> 100 µM								
COc1cc(COC(=O)N2CCC2C(=O)O)c([N+](=O)[O-])cc1OC (stereo not drawn)	> 100	> 100		> 100 µM	> 100	> 100 µM		> 100 µM	> 100 µM	> 100 µM	> 100 µM	> 100 µM								
COC(=O)/C=c1/c2ccccc2n2nc3ccccc3c12	> 100	> 100	> 100	35.3 µM		> 100 µM	> 100 µM	> 100 µM	> 100 µM	> 100 µM	> 100 µM	> 100 µM								

SMILES	TGI [1] [µM]	TGI [2] [µM]	TGI [3] [µM]	TGI [4]	TGI [5] [µM]	TGI [6]	TGI [7]	TGI [8]	TGI [9]	TGI [10]	TGI [11]	TGI [12]	GI50 [2] [µM]	GI50 [5] [µM]	GI50 [6] [µM]	GI50 [8] [µM]	GI50 [9] [µM]	GI50 [11]	GI50 [12]	GI50 [7]
CCOc1cc(NC(C)=O)ccc1C(=O)NN1C(=O)/C(=C/c2cc(OC)c(OC)c(OC)c2)N=C1c1ccccc1	69.2	> 100	> 100	> 100 µM	> 100	> 100 µM		> 100 µM	> 100 µM		> 100 µM	> 100 µM								
CC(C)C1OC(=O)/C=C/C=C/C=C/C=C/C=C/CC(O)CC(O)CC(O)CC(O)CC(O)CC(O)CC(O)CC(O)/C=C/C1C (stereo not drawn)	> 100		> 100	> 100 µM	> 100	> 100 µM	> 100 µM	> 100 µM	> 100 µM	> 100 µM	> 100 µM	> 100 µM								
Cc1cccc2c1NC(=S)[C@@H]1CCCN1C2=O	> 100	> 100	> 100	> 100 µM	> 100	> 100 µM	> 100 µM	> 100 µM	> 100 µM	> 100 µM	> 100 µM									
Cc1c(NC(=S)Nc2ccc(Cl)cc2)c(=O)n(-c2ccccc2)n1C	> 100	> 100	> 100	> 100 µM	> 100	> 100 µM			> 100 µM	> 100 µM	> 100 µM	> 100 µM								
S=C1N=C(Cl)C2(NN1)c1ccccc1-c1ccccc12	> 10	> 10	> 10	> 10 µM	> 10			> 10 µM	> 10 µM	> 10 µM	> 10 µM	> 10 µM								
CN1CN(c2ccccc2)C2(CCN(CCc3csc4ccccc34)CC2)C1=O	17.7		32.8	41.9 µM	39.6			32.1 µM	39.3 µM	29.8 µM	28.4 µM	31.2 µM								
CC1(C)N=C(N)N=C(N)N1c1cccc(OCCOc2ccc([N+](=O)[O-])cc2)c1	> 100	> 100	> 100	> 100 µM		> 100 µM	> 100 µM	> 100 µM	> 100 µM	> 100 µM	> 100 µM	> 100 µM								
CC1(C)CC(=O)c2c(nc3ccc4ccccc4c3c2-c2ccc(NC(=O)CCC(=O)Nc3ccc(-c4c5c(nc6ccc7ccccc7c46)CC(C)(C)CC5=O)cc3)cc2)C1		> 100	> 100	> 100 µM	> 100	> 100 µM	> 100 µM	> 100 µM	> 100 µM	> 100 µM	> 100 µM	> 100 µM								
CC1C[C@]2(C)C(=O)N(c3ccccc3)C(=N)[C@@H]2N(C)c2ccccc21 (stereo partly drawn)		> 100	> 100	> 100 µM	> 100	> 100 µM	> 100 µM	> 100 µM	> 100 µM		> 100 µM	> 100 µM								
CNC(=O)c1[nH]cnc1/N=N/N(C)N	> 100	> 100	> 100	> 100 µM	> 100	> 100 µM	> 100 µM	> 100 µM	> 100 µM	> 100 µM	> 100 µM									
COCc1cc2c(cc1/C=C/[N+](=O)[O-])OCO2		44.3	67.9	> 100 µM	42.9	36.3 µM		34 µM	40.7 µM	31.6 µM	30.8 µM	85.6 µM								
c1cc2c(c(-c3c4ccccc4nc4ccccc34)c1)CC1(CC2)OCCO1	> 100		> 100	> 100 µM	> 100	> 100 µM	> 100 µM	> 100 µM	> 100 µM	> 100 µM	> 100 µM									
CC1(C)Oc2ccc3c(=O)cc(-c4ccc(F)cc4)oc3c2C1C(=O)O (stereo not drawn)		> 100		> 100 µM	> 100	> 100 µM	> 100 µM	> 100 µM		> 100 µM	> 100 µM									
Cc1nc2c(sc3nc4ccccc4n32)c(=O)[nH]1	> 100	> 100	> 100	> 100 µM	> 100	> 100 µM	> 100 µM		> 100 µM	> 100 µM	> 100 µM									
CC(C)=CCC/C(C)=C/CC/C(C)=C/CC/C(C)=C/CC/C(C)=C\CC/C(C)=C/CC/C(C)=C/CC/C(C)=C/Cc1cc(O)ccc1O	5.81	8.93		8.34 µM	4.65	3.76 µM	3.14 µM	> 100 µM	> 100 µM	4.06 µM	2.91 µM									
Cc1cn(Cc2ccccc2CCl)c(=O)[nH]c1=O		56.6		> 100 µM		30.4 µM	33.8 µM	32.7 µM	34.1 µM	21.4 µM	31.1 µM	14.8 µM								
C[Si](C)(OCCS(=O)(=O)O)C1S(=O)(=O)OCCOS1(=O)=O	> 100		> 100	> 100 µM	> 100	31.8 µM		> 100 µM	> 100 µM	> 100 µM	> 100 µM	> 100 µM								
O=C(CC(C(=O)c1ccoc1)c1ccco1)c1ccco1 (stereo not drawn)		> 100	> 100	> 100 µM	> 100	> 100 µM		> 100 µM	> 100 µM	> 100 µM	> 100 µM	> 100 µM								
Cc1nnc2n1-c1ccccc1C(=S)N1CSCC21 (stereo not drawn)	> 100	> 100	> 100	> 100 µM	> 100	> 100 µM	> 100 µM	> 100 µM	> 100 µM	> 100 µM	> 100 µM									
COC(=O)CCC12CCC(O1)c1ccccc12 (stereo not drawn)	> 100		> 100	> 100 µM	> 100	> 100 µM		> 100 µM	> 100 µM	> 100 µM	> 100 µM	> 100 µM								
